Literature values, collected in US7906537B2, “Substituted p-diaminobenzene derivatives” (priority 2003, dated 2011).

Tests used:
[1] = tested on: electrically induced seizures, seizures induced chemically by pentylenetetrazole, picrotoxin and NMDA, DBA/2 mouse; conditions: after oral and intraperitoneal administration in rats and mice
amygdala kindling model = conditions: in vivo
epileptic patients = conditions: clinical trials
[2] = tested on: K(+) current in neuronal cells
[3] = tested on: animal models of neuropathic pain; conditions: in vivo
[4] = tested on: kainic acid-induced status epilepticus; conditions: following kainic acid-induced status epilepticus in the rat
hippocampal kindling = conditions: rat
[5] = tested on: animal models of anxiety-like behaviour; conditions: in vivo
[6] = tested on: animal models of ethanol withdrawal syndrome; conditions: in vivo

| SMILES | activity in a range of anticonvulsant tests [1] | activity in the amygdala kindling model of complex partial seizures (amygdala kindling model) | incidence of seizures in epileptic patients (epileptic patients) | activation of K(+) current [2] | effect in animal models of neuropathic pain [3] | limbic neurodegeneration and expression of markers of apoptosis [4] | progression of hippocampal kindling (hippocampal kindling) | activity in animal models of anxiety-like behaviour [5] | effect in animal models of ethanol withdrawal syndrome [6] |
| --- | --- | --- | --- | --- | --- | --- | --- | --- | --- |
| CCOC(=O)Nc1ccc(NCc2ccc(F)cc2)cc1N [Retigabine, N-(2-amino-4-(4-fluorobenzylamino)-phenyl)carbamic acid ethyl ester] | active | active | effectiveness in reducing the incidence of seizures | activate a K(+) current | beneficial | prevent limbic neurodegeneration and the expression of markers of apoptosis | delay the progression of hippocampal kindling | active | – |
| NCC1(CC(=O)O)CCCCC1 [gabapentin] | – | – | – | – | – | – | – | – | very effective |
